In US8691865B2 (AbbVie Inc., priority 2008, dated 2014) one finds IC50 data, which are given here for 31 molecules.

Sequence of human Cav2.2 (Q00975 whole entry): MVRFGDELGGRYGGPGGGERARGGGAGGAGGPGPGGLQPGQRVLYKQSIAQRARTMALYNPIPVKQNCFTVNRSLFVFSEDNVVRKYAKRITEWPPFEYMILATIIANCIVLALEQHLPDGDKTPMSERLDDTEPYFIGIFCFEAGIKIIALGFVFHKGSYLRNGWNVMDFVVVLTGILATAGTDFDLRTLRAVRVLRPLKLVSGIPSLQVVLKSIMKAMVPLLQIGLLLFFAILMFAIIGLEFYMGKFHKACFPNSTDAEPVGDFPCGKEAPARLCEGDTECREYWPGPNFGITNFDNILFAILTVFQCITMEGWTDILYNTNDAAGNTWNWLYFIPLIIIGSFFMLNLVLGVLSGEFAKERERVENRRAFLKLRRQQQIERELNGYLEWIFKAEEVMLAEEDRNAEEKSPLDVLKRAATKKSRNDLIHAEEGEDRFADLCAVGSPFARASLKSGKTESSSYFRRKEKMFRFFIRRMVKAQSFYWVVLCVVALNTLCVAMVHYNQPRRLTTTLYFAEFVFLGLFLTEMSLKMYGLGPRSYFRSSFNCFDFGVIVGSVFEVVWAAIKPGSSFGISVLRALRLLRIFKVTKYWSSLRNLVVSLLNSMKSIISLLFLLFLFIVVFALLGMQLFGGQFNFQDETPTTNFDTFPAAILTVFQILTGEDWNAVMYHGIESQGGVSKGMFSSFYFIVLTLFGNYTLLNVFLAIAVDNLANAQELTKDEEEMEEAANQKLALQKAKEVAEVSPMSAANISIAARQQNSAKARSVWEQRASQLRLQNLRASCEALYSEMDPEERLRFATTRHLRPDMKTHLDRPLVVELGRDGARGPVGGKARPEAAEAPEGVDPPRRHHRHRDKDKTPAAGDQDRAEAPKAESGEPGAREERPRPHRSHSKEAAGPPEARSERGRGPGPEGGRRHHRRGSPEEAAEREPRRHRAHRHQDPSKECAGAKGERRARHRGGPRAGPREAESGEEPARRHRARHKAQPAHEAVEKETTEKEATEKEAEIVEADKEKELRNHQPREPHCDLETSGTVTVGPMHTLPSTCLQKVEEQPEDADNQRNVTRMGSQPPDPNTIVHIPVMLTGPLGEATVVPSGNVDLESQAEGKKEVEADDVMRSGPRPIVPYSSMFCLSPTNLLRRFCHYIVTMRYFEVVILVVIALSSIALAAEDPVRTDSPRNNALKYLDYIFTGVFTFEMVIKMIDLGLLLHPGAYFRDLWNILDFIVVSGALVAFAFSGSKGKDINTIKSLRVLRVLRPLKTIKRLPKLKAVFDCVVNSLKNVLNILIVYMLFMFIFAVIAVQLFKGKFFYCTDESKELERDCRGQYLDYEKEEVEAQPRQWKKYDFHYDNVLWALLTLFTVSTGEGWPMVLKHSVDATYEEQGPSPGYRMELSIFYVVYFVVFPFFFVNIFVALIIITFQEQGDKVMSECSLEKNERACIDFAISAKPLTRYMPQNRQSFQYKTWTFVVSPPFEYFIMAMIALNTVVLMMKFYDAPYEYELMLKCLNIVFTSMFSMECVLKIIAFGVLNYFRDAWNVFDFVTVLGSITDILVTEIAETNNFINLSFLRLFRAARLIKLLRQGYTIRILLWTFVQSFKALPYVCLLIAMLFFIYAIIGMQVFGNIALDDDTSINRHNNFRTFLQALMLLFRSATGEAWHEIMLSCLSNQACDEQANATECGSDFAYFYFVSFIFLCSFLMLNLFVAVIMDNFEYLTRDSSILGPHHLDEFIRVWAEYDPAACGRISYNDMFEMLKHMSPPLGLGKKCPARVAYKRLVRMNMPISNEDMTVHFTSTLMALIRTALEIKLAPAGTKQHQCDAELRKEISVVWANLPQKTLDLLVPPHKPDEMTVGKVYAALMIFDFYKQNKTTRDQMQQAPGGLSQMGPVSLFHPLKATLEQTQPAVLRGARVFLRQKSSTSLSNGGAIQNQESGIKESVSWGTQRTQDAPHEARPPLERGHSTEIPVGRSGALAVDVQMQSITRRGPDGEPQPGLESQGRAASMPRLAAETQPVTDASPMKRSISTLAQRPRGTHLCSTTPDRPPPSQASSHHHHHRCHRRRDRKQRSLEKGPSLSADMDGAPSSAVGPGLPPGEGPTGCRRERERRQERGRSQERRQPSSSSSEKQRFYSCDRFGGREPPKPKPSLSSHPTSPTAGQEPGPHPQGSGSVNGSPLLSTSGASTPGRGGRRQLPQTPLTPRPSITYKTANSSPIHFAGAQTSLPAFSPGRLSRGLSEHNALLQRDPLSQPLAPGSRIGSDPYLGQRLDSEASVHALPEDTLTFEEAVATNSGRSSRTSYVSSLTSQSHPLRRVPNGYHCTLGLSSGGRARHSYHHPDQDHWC
Sequence of human Cav2.2 (P54289 25-956 partner limits assumed): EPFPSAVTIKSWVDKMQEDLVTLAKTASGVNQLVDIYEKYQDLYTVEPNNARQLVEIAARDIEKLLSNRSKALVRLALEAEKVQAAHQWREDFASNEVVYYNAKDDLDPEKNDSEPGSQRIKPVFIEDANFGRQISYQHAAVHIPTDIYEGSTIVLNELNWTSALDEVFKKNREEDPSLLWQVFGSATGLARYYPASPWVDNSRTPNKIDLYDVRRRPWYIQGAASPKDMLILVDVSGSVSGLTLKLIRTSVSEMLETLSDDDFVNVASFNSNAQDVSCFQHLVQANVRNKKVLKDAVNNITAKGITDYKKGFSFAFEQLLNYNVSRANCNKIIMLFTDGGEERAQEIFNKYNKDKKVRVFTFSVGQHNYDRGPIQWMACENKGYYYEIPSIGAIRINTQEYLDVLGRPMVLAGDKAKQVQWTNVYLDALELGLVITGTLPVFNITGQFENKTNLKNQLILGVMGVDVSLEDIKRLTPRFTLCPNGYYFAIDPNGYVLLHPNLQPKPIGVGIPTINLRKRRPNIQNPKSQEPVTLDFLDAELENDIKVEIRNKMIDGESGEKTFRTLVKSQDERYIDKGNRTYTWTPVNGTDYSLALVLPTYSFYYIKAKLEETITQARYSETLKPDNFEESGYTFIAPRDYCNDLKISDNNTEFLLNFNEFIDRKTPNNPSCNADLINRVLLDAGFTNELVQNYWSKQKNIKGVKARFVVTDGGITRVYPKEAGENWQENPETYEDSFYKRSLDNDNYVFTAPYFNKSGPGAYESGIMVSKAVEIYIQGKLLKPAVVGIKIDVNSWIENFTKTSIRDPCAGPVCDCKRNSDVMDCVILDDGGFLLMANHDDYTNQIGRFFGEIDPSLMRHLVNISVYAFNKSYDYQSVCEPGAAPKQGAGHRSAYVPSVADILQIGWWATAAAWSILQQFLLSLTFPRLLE
Sequence of human Cav2.2 (P54289 957-1103 partner limits assumed): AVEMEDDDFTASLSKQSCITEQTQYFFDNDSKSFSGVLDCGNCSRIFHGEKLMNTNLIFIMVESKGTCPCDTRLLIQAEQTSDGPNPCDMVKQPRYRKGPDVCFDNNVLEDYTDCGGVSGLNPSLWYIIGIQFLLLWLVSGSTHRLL
Sequence of human Cav2.2 (P54284 whole entry partner): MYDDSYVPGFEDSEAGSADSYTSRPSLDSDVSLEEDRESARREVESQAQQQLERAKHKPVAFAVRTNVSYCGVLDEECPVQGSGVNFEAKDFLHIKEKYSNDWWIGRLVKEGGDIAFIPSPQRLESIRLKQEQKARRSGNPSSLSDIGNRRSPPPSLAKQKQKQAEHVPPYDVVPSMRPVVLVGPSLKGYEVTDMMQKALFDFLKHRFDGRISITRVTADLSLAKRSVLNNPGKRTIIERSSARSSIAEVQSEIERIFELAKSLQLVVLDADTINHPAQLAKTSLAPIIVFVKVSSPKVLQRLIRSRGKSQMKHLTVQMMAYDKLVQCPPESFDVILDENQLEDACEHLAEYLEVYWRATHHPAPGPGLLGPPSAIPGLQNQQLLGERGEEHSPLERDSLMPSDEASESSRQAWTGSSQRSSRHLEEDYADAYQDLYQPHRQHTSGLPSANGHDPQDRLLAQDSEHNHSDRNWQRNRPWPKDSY

One assay has as its target human Cav2.2 (Homo sapiens, UniProt Q00975). As to the kind of experiment: Assessment of calcium channel activity using FLIPR (Ca2+ influx in IMR32 cells). The class given is cell-based.
Conditions: not given
The method in brief: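 Human neuroblastoma IMR32 cells were seeded at 1−1.2×10^5 cells/well and cultured 48 h at 37 °C before FLIPR calcium influx measurement. Percent inhibition at each concentration was calculated against the no-inhibitor signal, and IC50 came from sigmoidal dose-response fits.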
Turning to `CN[C@H](C(=O)N[C@H]1CC[C@@H]2CN(S(=O)(=O)c3cccc(C(F)(F)F)c3)C[C@@H]21)C(C)C` [Example 389, N^2-methyl-N^1-((3aR,4S,6aS)-2-{[3-(trifluoromethyl)phenyl]sulfonyl}octahydrocyclopenta[c]pyrrol-4-yl)-L-valinamide], the IC50 was found to be 1.48 µM.

Regarding `Fc1ccc2[nH]c(CN[C@H]3CC[C@@H]4CN(c5cccc(OC(F)(F)F)c5)C[C@@H]43)cc2c1` [Example 715, (3aR,4S,6aS)-N-[(5-fluoro-1H-indol-2-yl)methyl]-2-[3-(trifluoromethoxy)phenyl]octahydrocyclopenta[c]pyrrol-4-amine], the IC50 amounted to 2.78 µM.

As to `O=C(N[C@H]1CC[C@@H]2CN(c3ccc(F)cc3C(F)(F)F)C[C@@H]21)[C@@H]1C[C@@H](F)CN1` [Example 698, (4R)-4-fluoro-N-{(3aR,4S,6aS)-2-[4-fluoro-2-(trifluoromethyl)phenyl]octahydrocyclopenta[c]pyrrol-4-yl}-L-prolinamide], the IC50 was 1.52 µM.

On to `O=S(=O)(c1ccc(C(F)(F)F)cc1)N1C[C@H]2CC[C@H](NCc3cc4cc(F)ccc4[nH]3)[C@H]2C1` [Example 654, (3aR,4S,6aS)-N-[(5-fluoro-1H-indol-2-yl)methyl]-2-{[4-(trifluoromethyl)phenyl]sulfonyl}octahydrocyclopenta[c]pyrrol-4-amine], for which the IC50 was determined as 0.82 µM.

As for `CC(C)CC(=O)N[C@H]1CC[C@@H]2CN(Cc3ccccc3)C[C@@H]21` [Example 230, N-[(3aR,4S,6aS)-2-benzyloctahydrocyclopenta[c]pyrrol-4-yl]-3-methylbutanamide], the IC50 was above 30 µM.

As for `CC(C)CC(=O)N[C@@H]1CC[C@H]2CN(Cc3ccccc3)C[C@H]21` [Example 236, N-[(3aS,4R,6aR)-2-benzyloctahydrocyclopenta[c]pyrrol-4-yl]-3-methylbutanamide], the IC50 is above 30 µM.

As to `O=S(=O)(N[C@H]1CC[C@@H]2CN(c3cccc(C(F)(F)F)n3)C[C@@H]21)c1ccc(Cl)cc1` [Example 700, 4-chloro-N-{(3aR,4S,6aS)-2-[6-(trifluoromethyl)pyridin-2-yl]octahydrocyclopenta[c]pyrrol-4-yl}benzenesulfonamide], the IC50 is 4.96 µM.

Turning to `CC(C)C[C@@H](C(=O)N[C@H]1CC[C@@H]2CN(Cc3ccc(C(F)(F)F)cc3)C[C@@H]21)N(C)C(=O)OC(C)(C)C` [Example 308, tert-butyl methyl((S)-4-methyl-1-oxo-1-((3aR,4S,6aS)-2-(4-(trifluoromethyl)benzyl)octahydrocyclopenta[c]pyrrol-4-ylamino)pentan-2-yl)carbamate], the IC50 is 1.93 µM.

Consider `FC(F)(F)c1cccc(N2C[C@H]3CC[C@H](NCc4nc(-c5ccc(Cl)cc5)c[nH]4)[C@H]3C2)n1` [Example 745, (3aR,4S,6aS)-N-{[4-(4-chlorophenyl)-1H-imidazol-2-yl]methyl}-2-[6-(trifluoromethyl)pyridin-2-yl]octahydrocyclopenta[c]pyrrol-4-amine], for which the IC50 turned out to be 3.51 µM.

As to `O=C(N[C@H]1CC[C@@H]2CN(c3cccc(C(F)(F)F)n3)C[C@@H]21)c1cccc(O)c1` [Example 577, 3-hydroxy-N-{(3aR,4S,6aS)-2-[6-(trifluoromethyl)pyridin-2-yl]octahydrocyclopenta[c]pyrrol-4-yl}benzamide], the IC50 was 2.06 µM.

Take `FC(F)(F)c1cccc(N2C[C@H]3CC[C@H](NCc4cc5cc(Cl)ccc5[nH]4)[C@H]3C2)n1` [Example 665, (3aR,4S,6aS)-N-[(5-chloro-1H-indol-2-yl)methyl]-2-[6-(trifluoromethyl)pyridin-2-yl]octahydrocyclopenta[c]pyrrol-4-amine]: the IC50 came out at 2.99 µM.

Turning to `O=C(N[C@H]1CC[C@H]2CN(Cc3ccc(F)cc3)C[C@H]21)C(C1CCCCC1)C1CCCCC1` [Example 56, 2,2-dicyclohexyl-N-[(3aS,4S,6aR)-2-(4-fluorobenzyl)octahydrocyclopenta[c]pyrrol-4-yl]acetamide], the IC50 worked out at 0.74 µM.

For the molecule `O=C(N[C@H]1CC[C@H]2CN(Cc3cccc(OC(F)(F)F)c3)C[C@H]21)C(C1CCCCC1)C1CCCCC1` [Example 63, 2,2-dicyclohexyl-N-{(3aS,4S,6aR)-2-[3-(trifluoromethoxy)benzyl]octahydrocyclopenta[c]pyrrol-4-yl}acetamide], the 50% inhibitory concentration (IC50) was determined as 0.51 µM.

`CN[C@@H](Cc1ccccc1)C(=O)N[C@H]1CC[C@@H]2CN(S(=O)(=O)c3ccc(C(F)(F)F)cc3Cl)C[C@@H]21` [Example 432]: the IC50 is 1.66 µM.

For the molecule `Cn1c(CN[C@H]2CC[C@@H]3CN(c4cccc(C(F)(F)F)n4)C[C@@H]32)nc2ccccc21` [Example 731, (3aR,4S,6aS)-N-[(1-methyl-1H-benzimidazol-2-yl)methyl]-2-[6-(trifluoromethyl)pyridin-2-yl]octahydrocyclopenta[c]pyrrol-4-amine], the IC50 turned out to be 0.94 µM.

For the molecule `O=C(N[C@@H]1CC[C@H]2CN(Cc3cccc(C(F)(F)F)c3)C[C@H]21)C(c1ccccc1)c1ccccc1` (relative stereo) [Example 145, 2,2-diphenyl-N-{(3aS*,4R*,6aR*)-2-[3-(trifluoromethyl)benzyl]octahydrocyclopenta[c]pyrrol-4-yl}acetamide], the IC50 was determined as 1.14 µM.

Turning to `Fc1ccc2[nH]c(CN[C@H]3CC[C@@H]4CN(c5ccc(OC(F)(F)F)cc5)C[C@@H]43)cc2c1` [Example 716, (3aR,4S,6aS)-N-[(5-fluoro-1H-indol-2-yl)methyl]-2-[4-(trifluoromethoxy)phenyl]octahydrocyclopenta[c]pyrrol-4-amine], the IC50 worked out at 8.15 µM.

`FC(F)(F)c1cccc(N2C[C@H]3CC[C@H](NCc4c[nH]nc4-c4ccc(Cl)cc4)[C@H]3C2)n1` [Example 666, (3aR,4S,6aS)-N-{[3-(4-chlorophenyl)-1H-pyrazol-4-yl]methyl}-2-[6-(trifluoromethyl)pyridin-2-yl]octahydrocyclopenta[c]pyrrol-4-amine]: the IC50 was determined as 1.37 µM.

With `CNCC(=O)N[C@H]1CC[C@@H]2CN(c3ccc(C(F)(F)F)cc3)C[C@@H]21` [Example 752, N^2-methyl-N-{(3aR,4S,6aS)-2-[4-(trifluoromethyl)phenyl]octahydrocyclopenta[c]pyrrol-4-yl}glycinamide], the IC50 is above 9.5 µM.

Turning to `CN[C@@H](CC(C)C)C(=O)N[C@@H]1CC[C@H]2CN(c3ccc(C(F)(F)F)cn3)C[C@H]21` [Example 738, N^2-methyl-N-{(3aS,4R,6aR)-2-[5-(trifluoromethyl)pyridin-2-yl]octahydrocyclopenta[c]pyrrol-4-yl}-L-leucinamide], the IC50 was found to be 2.98 µM.

For `FC(F)(F)c1cccc(N2C[C@H]3CC[C@H](NCc4nc5ccccc5[nH]4)[C@H]3C2)n1` [Example 683, (3aR,4S,6aS)-N-(1H-benzimidazol-2-ylmethyl)-2-[6-(trifluoromethyl)pyridin-2-yl]octahydrocyclopenta[c]pyrrol-4-amine], the IC50 was 0.71 µM.

As for `O=S(=O)(N[C@H]1CC[C@@H]2CN(c3cccc(C(F)(F)F)n3)C[C@@H]21)c1ccc(F)c(Cl)c1` [Example 710, 3-chloro-4-fluoro-N-{(3aR,4S,6aS)-2-[6-(trifluoromethyl)pyridin-2-yl]octahydrocyclopenta[c]pyrrol-4-yl}benzenesulfonamide], the IC50 was 5.56 µM.

On to `O=C(N[C@H]1CC[C@@H]2CN(Cc3cccc(C(F)(F)F)c3)C[C@@H]21)C(C1CCCCC1)C1CCCCC1` [Example 156, 2,2-dicyclohexyl-N-{(3aR,4S,6aS)-2-[3-(trifluoromethyl)benzyl]octahydrocyclopenta[c]pyrrol-4-yl}acetamide], for which the IC50 was 0.76 µM.

Turning to `CN[C@@H](CC(C)C)C(=O)N[C@H]1CC[C@@H]2CN(c3ncc(C(F)(F)F)cc3Br)C[C@@H]21` [Example 766, N-{(3aR,4S,6aS)-2-[3-bromo-5-(trifluoromethyl)pyridin-2-yl]octahydrocyclopenta[c]pyrrol-4-yl}-N^2-methyl-L-leucinamide], the IC50 amounted to 0.63 µM.

The same assay, now with this note: read-out: IC50 (μM) or percent inhibition (* indicates 3 minute incubation, otherwise 60 minute); IC50; 60 minute pre-incubation with compound; IMR32 cells, 80 mM KCl depolarization.
Take `CC(C)C(C(=O)N[C@H]1CC[C@@H]2CN(Cc3ccccc3)C[C@@H]21)C(C)C` [Example 229, N-[(3aR,4S,6aS)-2-benzyloctahydrocyclopenta[c]pyrrol-4-yl]-2-isopropyl-3-methylbutanamide]: the IC50 turned out to be 13.4 µM.

On to `O=S(=O)(c1cccc(C(F)(F)F)c1)N1C[C@H]2CC[C@H](NC(c3ccccc3)c3ccccc3)[C@H]2C1` [Example 468, (3aR,4S,6aS)-N-benzhydryl-2-{[3-(trifluoromethyl)phenyl]sulfonyl}octahydrocyclopenta[c]pyrrol-4-amine], for which the IC50 stood at 2.26 µM.

On to `CC(C)C[C@@H](C(=O)N[C@H]1CC[C@H]2CN(Cc3ccccc3)C[C@H]21)N(C)C(=O)OC(C)(C)C` [Example 239, tert-butyl(S)-1-((3aS,4S,6aR)-2-benzyloctahydrocyclopenta[c]pyrrol-4-ylamino)-4-methyl-1-oxopentan-2-yl(methyl)carbamate], for which the IC50 is 3.32 µM.

In the case of `O=C(N[C@H]1CC[C@@H]2CN(Cc3ccccc3)C[C@@H]21)C(c1ccccc1)C1CCCC1` (stereo partly drawn) [Example 34, N-[(3aR,4S,6aS)-2-benzyloctahydrocyclopenta[c]pyrrol-4-yl]-2-cyclopentyl-2-phenylacetamide], the IC50 turned out to be 1.51 µM.

`CCC[C@H](NCC(C)(C)C)C(=O)N[C@@H]1CC[C@H]2CN(Cc3ccccc3)C[C@H]21` [Example 246, N^1-[(3aS,4R,6aR)-2-benzyloctahydrocyclopenta[c]pyrrol-4-yl]-N^2-neopentyl-L-norvalinamide]: the IC50 worked out at 8.38 µM.

“4-methyl-N^1-{(3aR,4S,6aS)-2-[2-(methylsulfonyl)pyrimidin-5-yl]octahydrocyclopenta[c]pyrrol-4-yl}-L-leucinamide [Example 442]”: the IC50 stood at 7.18 µM.

As for `CC(C)C[C@H](N)C(=O)N[C@@H]1CC[C@H]2CN(S(=O)(=O)c3cccc(C(F)(F)F)c3)C[C@H]21` [Example 184, N^1-((3aS,4R,6aR)-2-{[3-(trifluoromethyl)phenyl]sulfonyl}octahydrocyclopenta[c]pyrrol-4-yl)-L-leucinamide], the IC50 came out at 1.45 µM.
